From PubChem BioAssay (NCI) come the findings set out here.

Some test systems named below: SK-OV-3 ovarian; NCI-H226 lung; T-47D breast; NCI-H522 lung; CAKI-1 renal; A549 NSCLC; HCC-2998 colon; MDA-MB-231 breast; HL-60(TB) leukemia; LOX IMVI melanoma; SR leukemia.
Assay in all cases: NCI tumour cell line growth inhibition, 48 h

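Each compound was tested at five concentrations against cells in 96-well plates for 48 hours. TGI: concentration producing complete growth inhibition.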 Where only a bound is given, the exact number is not on record here.

Turning to `OCC1OC(n2cnc3c(SCc4ccccc4)ncnc32)C(O)C1O` (configuration not stated), the TGI in the test on SK-OV-3 ovarian, in the test on NCI-H226 lung, with T-47D breast, with NCI-H522 lung, with CAKI-1 renal and with A549 NSCLC was over 100 µM throughout. For the same compound, the TGI was over 100 µM with HCC-2998 colon; over 100 µM with MDA-MB-231 breast; 8.52 µM in the test with HL-60(TB) leukemia; over 100 µM in the test on LOX IMVI melanoma; over 100 µM in the test on SR leukemia.
For the compound `Cn1nc(-c2ccccc2)c2c(-c3ccccc3)c3cc(Cl)ccc3nc21`, the TGI in the test on SK-OV-3 ovarian, in the test with NCI-H226 lung, in the test on T-47D breast, in the test with NCI-H522 lung, with CAKI-1 renal and in the test on A549 NSCLC was over 100 µM each time. The TGI in the test with HCC-2998 colon, in the test on MDA-MB-231 breast, in the test on HL-60(TB) leukemia, with LOX IMVI melanoma and in the test on SR leukemia was over 100 µM each time.
Take `Cc1ccc(SCC(CF)OC(C)n2cnc3c(Cl)nc(N)nc32)cc1` (configuration not stated): the TGI was over 100 µM in the test on SK-OV-3 ovarian; over 100 µM in the test with NCI-H226 lung; over 100 µM in the test with T-47D breast; 36.1 µM in the test on NCI-H522 lung; over 100 µM in the test on CAKI-1 renal; over 100 µM with A549 NSCLC. For the same compound, the TGI with HCC-2998 colon was over 100 µM; in the test with MDA-MB-231 breast, over 100 µM; in the test on HL-60(TB) leukemia, 86.3 µM; in the test with LOX IMVI melanoma, over 100 µM; in the test on SR leukemia it was over 100 µM.
For `CSC1=C(C#N)C(=O)N(c2ccc(C)cc2)C(=O)C1C#N` (configuration not stated), the TGI in the test on SK-OV-3 ovarian, in the test with NCI-H226 lung, in the test with T-47D breast, in the test on NCI-H522 lung, in the test on CAKI-1 renal and with A549 NSCLC was over 100 µM each time. Moreover, the TGI in the test with HCC-2998 colon, in the test with MDA-MB-231 breast, with HL-60(TB) leukemia, with LOX IMVI melanoma and with SR leukemia was over 100 µM each time.
Regarding `Nc1nc(Br)nc2ncn(C3CC(O)C(CO)O3)c12` (configuration not stated), the TGI in the test on SK-OV-3 ovarian, in the test with NCI-H226 lung, with T-47D breast, with NCI-H522 lung, with CAKI-1 renal and with A549 NSCLC was over 100 µM throughout. Also, the TGI with HCC-2998 colon was over 100 µM; in the test with MDA-MB-231 breast, over 100 µM; in the test on HL-60(TB) leukemia it was 9.35 µM; in the test on LOX IMVI melanoma, over 100 µM; with SR leukemia, over 81 µM.
Take `O=C(O)c1cccc(OCCOc2cccc(C(=O)O)c2[N+](=O)[O-])c1[N+](=O)[O-]`: the TGI in the test on SK-OV-3 ovarian, with NCI-H226 lung, in the test with T-47D breast, in the test on NCI-H522 lung, with CAKI-1 renal and with A549 NSCLC was over 100 µM in each case. For the same compound, the TGI in the test on HCC-2998 colon, in the test on MDA-MB-231 breast, in the test with HL-60(TB) leukemia, in the test with LOX IMVI melanoma and with SR leukemia was over 100 µM each time.
`COc1cc2c(cc1O)Cc1c-2[n+](C)cc2cc(OC)c(OC)cc12`: the TGI in the test on SK-OV-3 ovarian, in the test on NCI-H226 lung, with T-47D breast, in the test with NCI-H522 lung, with CAKI-1 renal and in the test on A549 NSCLC was over 100 µM throughout. The TGI was over 100 µM in the test with HCC-2998 colon; over 100 µM with MDA-MB-231 breast; over 100 µM with HL-60(TB) leukemia; over 100 µM in the test with LOX IMVI melanoma; over 22.1 µM in the test with SR leukemia.
For `Cc1ccc(S(=O)(=O)ON2C(=O)c3c(N)c(C#N)c(-c4ccccc4)c(-c4ccccc4)c3C2=O)cc1`, the TGI with SK-OV-3 ovarian was over 100 µM; with NCI-H226 lung, 38.7 µM; in the test on T-47D breast, 38.1 µM; with NCI-H522 lung, 33.2 µM; with CAKI-1 renal, 29.8 µM; in the test with A549 NSCLC it was 43 µM. In addition, the TGI in the test with HCC-2998 colon worked out at 89.1 µM; in the test with MDA-MB-231 breast, 36.4 µM; in the test with HL-60(TB) leukemia it was 11.7 µM; in the test on LOX IMVI melanoma it was 31.1 µM; in the test on SR leukemia it was 35.9 µM.
Take `CN1CC=C(c2cccn2C)CC1`: the TGI with SK-OV-3 ovarian, in the test with NCI-H226 lung, in the test with T-47D breast, with NCI-H522 lung, with CAKI-1 renal and in the test on A549 NSCLC was over 100 µM in each case. The TGI in the test with HCC-2998 colon, with MDA-MB-231 breast, in the test with HL-60(TB) leukemia, in the test on LOX IMVI melanoma and with SR leukemia was over 100 µM throughout.
As to `O=C1CCCCC1C(O)(C(F)(F)F)C(F)(F)Cl` (configuration not stated), the TGI in the test with SK-OV-3 ovarian, in the test with NCI-H226 lung, in the test on T-47D breast, in the test on NCI-H522 lung, in the test with CAKI-1 renal and in the test with A549 NSCLC was over 10 µM throughout. In addition, the TGI in the test with HCC-2998 colon, in the test with MDA-MB-231 breast, in the test on HL-60(TB) leukemia, in the test with LOX IMVI melanoma and in the test with SR leukemia was over 10 µM throughout.
With `c1ccc(-c2cc(-c3ccncc3)cc(-c3ccncc3)n2)cc1`, the TGI in the test with SK-OV-3 ovarian, in the test with NCI-H226 lung, in the test on T-47D breast, with NCI-H522 lung, with CAKI-1 renal and in the test on A549 NSCLC was over 100 µM each time. In addition, the TGI with HCC-2998 colon, in the test on MDA-MB-231 breast, in the test with HL-60(TB) leukemia, in the test with LOX IMVI melanoma and in the test on SR leukemia was over 100 µM each time.
Regarding `COc1ccccc1N1C(=O)CSC1c1cc(OC)c(OC)c(OC)c1` (configuration not stated), the TGI in the test on SK-OV-3 ovarian was over 100 µM; in the test on NCI-H226 lung it was over 100 µM; in the test with T-47D breast, over 38.3 µM; in the test on NCI-H522 lung it was over 76.8 µM; in the test with CAKI-1 renal, over 100 µM; with A549 NSCLC, over 100 µM. Besides, the TGI is over 100 µM in the test with HCC-2998 colon; over 100 µM in the test with MDA-MB-231 breast; 97.7 µM in the test with HL-60(TB) leukemia; over 100 µM with LOX IMVI melanoma; over 100 µM in the test on SR leukemia.
